# Data as given in article PMC10734620, “A blinded in vitro analysis of the intrinsic immunogenicity of hepatotoxic drugs: implications for preclinical risk assessment” (Toxicological Sciences, 2023).
# Read-outs that look alike come from different tables or passages of the source.
# Legend:
# [1] = tested on: PBMC; assay: Inhibition of mitogen-induced (PHA-P) PBMC proliferation; format: cell-based, human; details: PBMC from 3 healthy donors, compound 48 h, then PHA-P 10 µg/ml 24 h, [3H]-thymidine, read-out: IC50, inhibition of mitogen-driven PBMC proliferation
# Experimental: Test compounds were provided by GSK to Liverpool as blinded dry powders with a given volume of dimethyl sulfoxide to prepare stock concentrations of 50 mM. Stock concentrations were aliquoted and stored at −80°C until required for experiments. A fresh aliquot was utilized for every experiment. PBMC from 3 healthy donors were used to determine the maximum tolerated concentration of each test compound. PBMC (0.15 × 10^6) were cultured with graded compound concentrations in U-bottomed 96-well plates for 48 h at 37°C, 5% CO2. Phytohemagglutinin (PHA-P; 10 µg/ml) was added to cells for a further 24 h followed by assessment of proliferation through the addition of [^3H]-thymidine (0.5 µCi/well) for the last 16 h. […] The IC50 value was then calculated using 4-parameter logistic curve-fitting model (GraphPad prism 7.0).
# Figure 2. Toxicity profiles of training and test compounds. […] PHA-P (10 µg/ml) was added to cells for a further 24 h followed by assessment of proliferation through the addition of [^3H]-thymidine (0.5 µCi/well) for the last 16 h. […] 4-parameter logistic functions were fit to the data and IC50 values were then reported (GraphPad prism 7.0). […] LPB (Liverpool Pharmacology Biobank) represents the unique identifier for PBMC isolated from each consented healthy blood donor for drug safety research. Percentage proliferation for each compound concentration = Proliferation following drug exposure divided by proliferation after cell culture media exposure multiplied by 100.
# [2] = design: method as in FDA DILIrank datasets; details: ref FDA DILIrank datasets; cited from earlier work
# [3] = design: method as in Sakatis et al., 2012; Schofield et al., 2021; details: Positive = above the threshold of concern; assays not listed negative; ref Sakatis et al., 2012; Schofield et al., 2021; cited from earlier work
# [4] = design: method as in earlier work; details: ref National Institute of Diabetes and Digestive and Kidney Diseases (2012); cited from earlier work
# [5] = tested on: T-cell clones; assay: Generation and drug-specificity testing of T-cell clones; format: cell-based, human; details: priming assay and/or T-cell clones
# Experimental: To establish T-cell lines, PBMC from 3 healthy HLA-typed (Table 2) donors were cultured with individual test compounds (at concentrations not associated with inhibition of mitogen-driven PBMC proliferation; see Figure 2 for individual concentrations) for 14 days. Medium was supplemented with IL-2 (50 U/ml; Peprotech, New Jersey) to maintain drug-specific T-cell expansion. T-cell clones were generated from the T-cell lines by serial dilution and repetitive mitogen stimulation ([Schnyder et al., 2000]). T-cells (0.3–3 cells/well) were cultured with irradiated allogenic PBMC (5 × 10^4/well) and PHA-P (1 µg/ml) in IL-2 containing medium. The medium was supplemented with fresh IL-2 on days 6, 9 and every 2 days thereafter. Growing cultures were expanded further with a second round of mitogen stimulation and tested for drug-specific T-cell proliferation on day 28. Cloned T-cells (5 × 10^4/well) were cultured with irradiated autologous EBV-transformed B-cells (1 × 10^4/well) and drug in duplicate wells for 48 h. Wells containing medium served as a negative control. Proliferation was measured by the addition of [^3H]-thymidine followed by scintillation counting. T-cell clones with SI ≥ 2 were considered drug-responsive and expanded using irradiated allogeneic PBMC for dose-response studies and assessment of CD4/8 phenotyping.
# Proliferation was measured by the addition of [^3H]-thymidine as described above.
# T-cell clones were washed with FACS buffer and CD phenotype determined using flow cytometry. Cells (10 000) were acquired using a FACSCanto II (BD Biosciences) and data analyzed by FACSDiva software.
# Figure 6. Generation of training compound (nitroso sulfamethoxazole, vancomycin, and Bandrowski’s base)-specific T-cell clones. PBMC from 3 healthy donors were cultured with training compounds and supplemented with IL-2 (50 U/ml) for 14 days. T-cell clones were generated from the T-cell lines by serial dilution and repetitive mitogen stimulation. T-cells (0.3–3 cells/well) were stimulated with irradiated allogenic PBMC (5 × 10^4/well) and phytohemagglutinin (1 µg/ml). Well growing cultures were subjected to a second round of expansion then tested for drug-specific T-cell proliferation. Proliferation was measured by the addition of ^3H-thymidine followed by scintillation counting. A–C, Initial specificity test for nitroso sulfamethoxazole, vancomycin, and Bandrowski’s base clones. T-cell clones showing stimulation index, SI ≥ 2 were considered drug-responsive and expanded and used in dose-response studies. SI = Drug-induced T-cell proliferation divided by T-cell proliferation in cell culture media. […] T-cell activation was determined using [^3H]-thymidine incorporation.
# Figure 7. […] PBMC from 3 healthy donors were cultured with test compounds and supplemented with IL-2 (50 U/ml) for 14 days. T-cell clones were generated from the T-cell lines by serial dilution and repetitive mitogen stimulation. T-cells (0.3–3 cells/well) were stimulated with irradiated allogenic PBMC (5 × 10^4/well) and phytohemagglutinin (1 µg/ml). Well growing cultures were subjected to a second round of expansion then tested for drug-specific T-cell proliferation. Proliferation was measured by the addition of ^3H-thymidine followed by scintillation counting. […] T-cell activation was determined using [^3H]-thymidine incorporation.
# [6] = tested on: naïve T-cells; assay: Priming of naïve human T-cells (dendritic cell-T-cell coculture); format: cell-based; details: for Proliferation of primed T-cells, drug- vs medium-restimulated wells: 14 days priming, restimulation 48 h at single concentration, 48 wells, [3H]-thymidine; for Proliferation in medium restimulated wells after priming: primed 2 weeks, medium restimulation
# Experimental: CD14+ monocytes were positively selected using CD14 antibody-conjugated microbeads. This was followed by the depletion of CD25+ cells from the CD14- population and the negative selection of CD45RA+ naïve T-cells. […] Dendritic cells were generated by culturing monocytes with a cocktail of GM-CSF (800 U/ml) and IL-4 (800 U/ml) in culture media for 6 days. Both cytokines were purchased from Peprotech (New Jersey). A maturation cocktail of TNF-α (25 ng/ml) and LPS (1 µg/ml) was added for 16 h before establishing the T-cell priming culture. Dendritic cells (8 × 10^3 per well) were cultured with naïve T-cells (1 × 10^5 per well) and the test compounds in a 96-well U-bottom tissue culture plate for 14 days at 37°C, 5% CO2. Cells were then washed extensively to remove unbound drug and cultures were restimulated with test compound or medium control (48 wells) for 48 h. Subsequent experiments were performed with training compounds to investigate the dose-dependent stimulation of naïve T-cells. In these experiments, T-cells were cultured with 3 concentrations of the test compound and medium (negative control) during the restimulation step. T-cell proliferative responses were determined by addition of [^3H]-thymidine (0.5 µCi/well) for the final 16 h of the culture period. Plates were harvested and counted as described above. […] Student’s t test was performed to determine statistical significance of T-cell proliferation when comparing medium- and drug-treated cultures (*p ≤ .05; **p ≤ .005; ***p < .001).
# Figure 3. Naïve T-cell priming with training compounds. CD14+ monocytes were utilized to generate dendritic cells with a cocktail of GM-CSF (800 U/ml) and IL-4 (800 U/ml) in culture media for 6 days. […] A, Nitroso sulfamethoxazole. B, Vancomycin. C, Bandrowski’s base. D, Carbamazepine. E, Piperacillin. The degree of naïve T-cell priming was determined by comparing the counts per minutes (cpm) of drug and media-treated cultures using a beta counter. Student’s t test was performed to determine statistical significance (*p ≤ .05; **p ≤ .005; ***p < .001). Each data point represents T-cells proliferation in individual well of a 96 U-bottomed plate.
# Figure 4. Dose-dependent stimulation of primed T-cells with training compound. […] Primed cells were washed extensively and then restimulated with 3 drug concentrations (low, medium, and high) for 48 h followed by determination of T-cell activation by [^3H]-thymidine incorporation. Each data point represents T-cells proliferation in individual well of a 96 U-bottomed plate.
# Figure 5. Naïve T-cell priming with test compounds. […] B, Dacarbazine. […] F, Iproniazid. G, Mepivacaine. H, Nevirapine. […] J, Phenoxybenzamine. Primed cells were washed extensively and then restimulated medium or drug for 48 h followed by determination of T-cell activation by [^3H]-thymidine incorporation. Each data point represents T-cells proliferation in individual well of a 96 U-bottomed plate.
smiles,measurement,setting,value
CN(C)/N=N/c1[nH]cnc1C(N)=O [Dacarbazine],IC50,"[1]; Homo sapiens, PBMC",15 µM
same,IC50,[1],≤ 20 µM
same,FDA Clinical Hepatotoxicity Concern,[2],Most
same,Routine Assays that are Positive (GSK),[3],Reactive metabolite; 3D hepatocyte spheroid
same,LiverTox annotation: likelihood as cause of clinically apparent liver injury,[4],Highly likely cause of clinically apparent liver injury. May be immunologically mediated as usually occurs with second or third cycle and accompanied by eosinophilia
same,Overall immunogenicity call in T-cell assays,[5],did not flag these compounds as immunogenic
COc1cc([C@@H]2c3cc4c(cc3[C@@H](O[C@@H]3O[C@@H]5CO[C@@H](C)O[C@H]5[C@H](O)[C@H]3O)[C@H]3COC(=O)[C@H]23)OCO4)cc(OC)c1O [Etoposide],IC50,"[1]; Homo sapiens, PBMC",20 µM
same,IC50,[1],≤ 20 µM
same,FDA Clinical Hepatotoxicity Concern,[2],Less
same,LiverTox annotation: likelihood as cause of clinically apparent liver injury,[4],"Probable cause of clinically apparent liver injury. Absence of immunoallergic features (rash, fever, eosinophilia) and of autoantibodies noted. Uncommon to have features of hypersensitivity"
same,Overall immunogenicity call in T-cell assays,[5],no false positives
CC(C)NNC(=O)c1ccncc1 [Iproniazid],IC50,[1]; listed as iproniazid,≥ 50 µM
same,IC50,[1],290 µM
same,FDA Clinical Hepatotoxicity Concern,[2],Most
same,Routine Assays that are Positive (GSK),[3],None
same,"Proliferation of primed T-cells, drug- vs medium-restimulated wells",[6],increases in proliferation with drug restimulation was not observed
same,Proliferation in medium restimulated wells after priming,[6],high level of proliferation
same,Overall immunogenicity call in T-cell assays,[5],did not flag these compounds as immunogenic
Cc1cccc(C)c1NC(=O)C1CCCCN1C (stereo not drawn) [Mepivacaine],IC50,[1]; listed as mepivacaine,≥ 50 µM
same,IC50,[1],210 µM
same,FDA Clinical Hepatotoxicity Concern,[2],No
same,Routine Assays that are Positive (GSK),[3],None
same,"Proliferation of primed T-cells, drug- vs medium-restimulated wells",[6],increases in proliferation with drug restimulation was not observed
same,Proliferation in medium restimulated wells after priming,[6],high level of proliferation
same,LiverTox annotation: likelihood as cause of clinically apparent liver injury,[4],Unlikely to be a cause of clinically apparent liver injury
same,Overall immunogenicity call in T-cell assays,[5],no false positives
Cc1ccnc2c1NC(=O)c1cccnc1N2C1CC1 [Nevirapine],IC50,[1]; listed as nevirapine,≥ 50 µM
same,IC50,[1],110 µM
same,FDA Clinical Hepatotoxicity Concern,[2],Most
same,Routine Assays that are Positive (GSK),[3],None
same,"Proliferation of primed T-cells, drug- vs medium-restimulated wells",[6],increases in proliferation with drug restimulation was not observed
same,Proliferation in medium restimulated wells after priming,[6],high level of proliferation
same,LiverTox annotation: likelihood as cause of clinically apparent liver injury,[4],Well-known cause of clinically apparent liver injury. Immunoallergic hepatitis associated with specific HLA types
same,Overall immunogenicity call in T-cell assays,[5],did not flag these compounds as immunogenic
O=C1CN(/N=C/c2ccc([N+](=O)[O-])o2)C(=O)N1 [Nitrofurantoin],IC50,"[1]; Homo sapiens, PBMC",15 µM
same,IC50,[1],≤ 20 µM
same,FDA Clinical Hepatotoxicity Concern,[2],Most
same,LiverTox annotation: likelihood as cause of clinically apparent liver injury,[4],Well-known cause of clinically apparent liver injury. Oxidative free radical formation. Some cases show autoimmune etiology with linkage to HLA-DR6 and DR2
same,Overall immunogenicity call in T-cell assays,[5],did not flag these compounds as immunogenic
